{"source": "patent US20080286147A1", "about": "“Apparatus and Method for Decontamination” (GOVERNMENT OF THE U.S.A. OF AMERICA AS REPRESENTED, priority 2004, published 2008)", "type_in_all_cases": "cell-based", "key": {"[1]": {"system": "B. subtilis var. niger spores", "assay": "Decontamination of a BSC containing spore test strips using 2500 ppm ClO2 for 60 min", "conditions": "70-80% relative humidity", "excerpt": "(§1) Test strips described in Example 1 were placed inside a BSC (FIG. 8) in various positions. Referring to FIGS. 2, 3 and 8, the opening in the front of the BSC 500 was sealed using a polyethylene sheet 502 or plastic sheeting and duct tape. An opening 504 was made in the plastic or polyethylene 502 to permit influx of air and other agents through the sealed BSC 500. Gas was evacuated from the sealed BSC using the port 506 on the top of the sealed BSC through fluid flow path 36.\nAfter sealing the BSC, the sealed area was humidified to 70-80% relative humidity as described in Examples 1 and 2. During the humidification, chlorine dioxide gas was introduced into the BSC as described in Example 1. The BSC was exposed to 2500 ppm chlorine dioxide gas for one hour. The BSC circulates 15 s/5 min.\nOnce the hour was up, the chlorine dioxide gas was neutralized as described above. The test strips were cultured as described in Example 1."}, "[2]": {"system": "B. subtilis var. niger spores", "assay": "Decontamination of a BSC containing spore test strips using 4000 ppm ClO2 for 60 min", "conditions": "75% relative humidity", "excerpt": "as §1\nAfter sealing the BSC, the sealed area was humidified to 75% relative humidity as described in Example 1. Briefly, water was added to a humidifier/scrubber 22, and a blower 24 attached to the humidifier/scrubber 22 to allow air to pass by the water to generate humidified air. A hose 30 coming from the humidifier/scrubber which emitted humidified air was introduced into an opening 504 in the sealed BSC 500. A hose 36 coming out of the BSC was attached to the blower 22, thereby providing a closed-loop which circulated humidified air from the humidifier/scrubber 22 into the sealed BSC 500, out of the sealed BSC 500 and back to the humidifier/scrubber 22, and so on.\nDuring the humidification, chlorine dioxide gas was introduced into the BSC as described in Example 1. The BSC was exposed to 4000 ppm chlorine dioxide gas for one hour. […]"}, "[3]": {"system": "B. subtilis var. niger spores", "assay": "Decontamination of a mock BSC containing spore test strips with chlorine dioxide gas; strips cultured in tryptic soy broth", "excerpt": "Test strips contaminated with 2.4×10^4 B. subtilis var. niger spores (Castle Biospore Biological Indicators, Castle, Inc., Rochester, N.Y.) were placed inside a mock BSC (FIG. 7) in various positions. The mock BSC was generated such that it was sealed from the outside environment, and included two openings to permit influx and efflux of air and other agents through the mock BSC.\nAfter sealing the mock BSC, the sealed mock BSC was humidified to 74-95% relative humidity using the following methods. Referring to FIGS. 2, 3 and 7, water was added to a humidifier/scrubber 22, and a blower 24 attached to the humidifier/scrubber 22 to allow air to pass by the water to generate humidified air. A hose 30 coming from the humidifier/scrubber which emitted humidified air was introduced into one of the openings 402 in the mock BSC 400. A hose 36 coming out of the mock BSC was attached to the blower 22, thereby providing a closed-loop which circulated humidified air from the humidifier/scrubber 22 into the mock BSC 400, out of the mock BSC 400 and back to the humidifier/scrubber 22, and so on. A hygrometer 404 in the mock BSC was used to monitor the relative humidity in the mock BSC.\nDuring the humidification, chlorine dioxide gas was introduced into the mock BSC as follows. A tank 12 containing a 4% chlorine/96% nitrogen gas mixture was turned on to permit the flow of gas to a CDG Saf-T-Chlor™ chlorine dioxide gas generator 14. This generator includes a sodium chlorite cartridge in fluid communication with the 4% Cl/96% N2 gas mixture. The resulting chlorine dioxide gas was allowed to flow into the hose 30 exiting the humidifier/scrubber (containing the humidified air), and was allowed to enter the mock BSC along with the humidified air. A chlorine dioxide monitor in the mock BSC allowed for a determination of the amount of chloride dioxide in the mock BSC. In some instances, the air circulation was increased by including a fan 406 in the mock BSC.\nFollowing exposure to chlorine dioxide, the tank 12 containing a 4% Cl/96% N2 gas mixture was turned off, to stop the flow and production of chlorine dioxide gas. To neutralize the chlorine dioxide gas, the following methods were used. A neutralizing solution that included 10% NaOH and 10% sodium thiosulfate hydrate (in water) was introduced into the humidifier/scrubber 22. Air from the mock BSC containing chlorine dioxide gas was circulated through the closed system described above, such that when the air containing chloride dioxide gas passed through the humidifier/scrubber 22, it was at least partially neutralized. […]"}}, "note": "Several values for one entry are separate records, joined by “and”; a condition that tells them apart may be missing. Identical values can stand only once."}
{"smiles": "[O][Cl+][O-]", "note": "[ClO2, Chlorine dioxide]", "values": [{"measurement": "Kill (number of test strips negative for spore growth)", "setting": "[1]; 2500 ppm ClO2 for 60 min, Runs A-D (70-74 °F)", "value": "24/24 and 23/23"}, {"measurement": "spore kill on test strips (in words)", "setting": "[1]; 2500 ppm chlorine dioxide gas for one hour", "value": "all spores were killed"}, {"measurement": "Kill (number of test strips negative for spore growth)", "setting": "[2]; 4000 ppm ClO2 for 60 min, Runs A-E (76.0-86.0 °F)", "value": "24/24 and 23/24"}, {"measurement": "spore kill on test strips (in words)", "setting": "[2]; 4000 ppm chlorine dioxide gas for one hour", "value": "all spores were killed except on one test strip"}, {"measurement": "Kill (number of test strips negative for spore growth)", "setting": "[3]; Run A: 1500 ppm ClO2, exposure 90 min, relative humidity 95%, 69 °F, strips with 2.4×10^4 spores", "value": "16/16"}, {"measurement": "Kill (number of test strips negative for spore growth)", "setting": "[3]; Run B: 1500 ppm ClO2, exposure 90 min, relative humidity 85%, 69 °F", "value": "16/16"}, {"measurement": "Kill (number of test strips negative for spore growth)", "setting": "[3]; Run C: 2200 ppm ClO2, exposure 60 min, relative humidity 74%, 69 °F", "value": "17/17"}, {"measurement": "Kill (number of test strips negative for spore growth)", "setting": "[3]; Run D: 2000 ppm ClO2, exposure 60 min, relative humidity 75%, 68 °F", "value": "17/17"}]}
